Assay type in all cases: biochemical
In assay [1] the target is Alexa 488 and 532 dual-labeled KF (K550C/L744C/C907G Klenow Fragment) (Escherichia coli, UniProt P00582, C907G/K550C/L744C). The arrangement: made in house; host or cells: E. coli BL21(DE3). As to conditions: for time durations of the FRET signal for incorporation into the primer: AF488 donor fluorescence, stopped flow, FIG. 5-7; for FRET duration, correct versus incorrect incorporation: position complementary to cytosine, dGTP correct, dCTP incorrect, FIG. 8; for AF488 fluorescence duration measured for the incorporation: dTTP versus Gamma-ANS-dTTP, FIG. 12. An excerpt:
The Klenow Fragments (KF) was produced as follows. KF was mutated to replace cysteine 907 with glycine, to replace leucine 744 (in the fingers domain) with cysteine and to replace lysine 550 (in the thumb domain) with cysteine, thereby producing K550C/L744C/C907G KF. Standard mutagenesis techniques were used to produce K550C/L744C/C907G KF as described in the manual of the QuikChange® site-directed mutagenesis kit from Stratagene/Agilent (La Jolla, Calif.). The K550C/L744C/C907G KF was cloned into the pET15b plasmid using the NdeI and BamHI restriction sites, and expressed in E. coli BL21(DE3) cells. The K550C/L744C/[…] KF was purified as described in Joyce, et al. Biochemistry, 47 (23): 6103-6116 (2008), which is incorporated herein by reference. The purified K550C/L744C/C907C KF was chemically modified using the thiol-reactive maleimide to introduce the Alexa488 fluorescent donor dye at cysteine 550
Conformational changes in the dual labeled KF enzyme from the open to closed state can be detected based on fluorescence resonance energy transfer (FRET) between the AF488 fluorescent donor dye on the thumb domain and AF532 fluorescence acceptor dye on the fingers domain. The KF enzyme can be bound to a primer-template nucleic acid complex in an open conformation. In the open conformation the AF488 fluorescent donor dye when excited with light at a wavelength of 495 nm will emit fluorescence at a wavelength of 519 nm. However, upon binding of an appropriate nucleotide to the dual labeled KF-template-primer complex the dual labeled KF enzyme changes from the open state to the closed state. The closed state brings the AF488 fluorescent donor dye on the thumb domain into proximity with the AF532 fluorescence acceptor dye on the finger domain such that the AF488 fluorescent donor dye when excited transfers energy to the AF532 fluorescence acceptor dye. This FRET results in a detectable emission from the AF532 fluorescence acceptor dye at a wavelength of […]. As such, binding of the appropriate nucleotide can be detected as increased emission at 554 nm wavelength. Furthermore, differential time durations of the closed state can be used to distinguish different nucleotides that are incorporated into the primer by dual labeled KF.
The real-time fluorescence change from dual labeled KF was measured in an Applied Photophysics SX20 stopped-flow spectrometer by monitoring changes in AF 488 dye fluorescence following the mixing of the PolI(KF)-DNA binary complex with a nucleotide in the reaction buffer containing 10 mM Tris-HCl, pH 8.0, 50 mM NaCl, 1 mM dithiothreitol and 10 mM MgCl2.
(§1) Dual labeled KF was produced as described in Example III. FRET from dual labeled KF was measured by stopped flow kinetics also as described in Example III. 5-TAMRA Pol β was prepared as described in Example IV. The real time fluorescence change from 5-TAMRA Pol β was measured by stopped flow kinetics also as described in Example IV.

For assay [2], the target named is T1, 5-TAMRA Pol β (W325C Pol β) (Homo sapiens, UniProt P06746, W325C).
T1 construct: made in house; host or cells: E. coli BL21(DE3)
Description: Stopped-flow 5-TAMRA fluorescence detection of nucleotide incorporation by 5-TAMRA Pol β. The settings on record: for amplitudes and durations for the 5-TAMRA emission shift: incorporated at an appropriate position in a template-bound primer, FIG. 10, 11, 13. How it is done:
5-TAMRA Pol β was prepared as follows. Human Pol β was mutated to replace Tryptophan 325 (in the fingers domain) with cysteine to produce W325C Pol β. Standard mutagenesis techniques were used to produce W325C Pol β as described in Example III. The W325C Pol β was cloned in the pET15b plasmid, expressed in E. coli BL21(DE3) cells and purified as described in Dunlap and Tsai, Biochemistry, 41 (37): 11226-11235 (2002), which is incorporated herein by reference. The purified W325C Pol β was chemically modified to introduce the 5-TAMRA fluorescent dye at cysteine 325, thereby producing 5-TAMRA Pol β.
Conformational changes in the 5-TAMRA Pol β enzyme from the open to closed state can be detected based on a fluorescent emission change from the environmentally sensitive 5-TAMRA dye. The spectral and emission intensity changes from the 5-TAMRA dye when the polymerase changes to the closed state. The 5-TAMRA Pol β enzyme can be bound to a primer-template nucleic acid complex in an open conformation. In the open conformation the 5-TAMRA dye when excited with light at a wavelength of 542 nm will emit fluorescence at a wavelength of 568 nm. However upon binding of an appropriate nucleotide to the 5-TAMRA Pol β-primer-template binary complex, the 5-TAMRA Pol β enzyme changes from the open state to the closed state causing the 5-TAMRA dye to experience a different environment. This change in environment results in a detectable fluorescent emission change from the TAMRA dye at the wavelength of 568 nm. As such, binding of the appropriate nucleotide can be detected as a fluorescent emission change at 568 nm wavelength. Furthermore, differential time durations of the closed state can be used to distinguish different nucleotides that are incorporated into the primer by 5-TAMRA Pol β.
The real-time fluorescence change from 5-TAMRA Pol β was measured in the Applied Photophysics SX20 stopped-flow spectrometer by monitoring changes in 5-TAMRA dye fluorescence following the mixing of the 5-TAMRA Pol β-DNA binary complex with a nucleotide in a reaction buffer containing 50 mM Tris-HCl, pH 7.5, 50 mM KCl, 1 mM Dithiothreitol and 5 mM MgCl2 as described in Example III.
as §1

Assay [3] has as its system nucleic acid duplex of extendable 3'-OH primer and AF488 template. Description: FRET-based primer extension assay (AF488 quenching). The settings on record: AF488 quenching over time by Cy3-dCTP incorporation, FIG. 16. Here is the method: Functionality of the Cy3AF647 and CF555AF647 conjugates of RB69V510CE766C were confirmed using a FRET-based primer extension assay as follows. Extension was carried out on a nucleic acid duplex composed of an extendable 3′-OH primer and a template with a 7 base overhang. The extendable sequence was TGGAACG. In addition, the template contained an AF488 dye at the 5′ position. The extension reaction mix was composed of 50 mM ACES pH 7.2, 50 mM NaCl, 10 mM DTT, 10 mM Mg′, 1 μM dTTP, 1 μM dGTP, 1 μM dATP and 0.1 μM Cy3-dCTP. Upon extension, the Cy3 quenches the AF488. The control reactions were carried out under the same conditions except that dTTP was removed to prevent extension. A SpectraMax M5 plate reader was used to monitor the AF488 quenching over time. […] The plot confirms that both conjugates were functional in extending a primed nucleic acid.

Entries after “also recorded” stand apart in the source; their conditions may differ.

Alexa 488 and 532 dual-labeled KF (K550C/L744C/C907G Klenow Fragment), sequence (P00582 324-928 K550C/L744C/C907G): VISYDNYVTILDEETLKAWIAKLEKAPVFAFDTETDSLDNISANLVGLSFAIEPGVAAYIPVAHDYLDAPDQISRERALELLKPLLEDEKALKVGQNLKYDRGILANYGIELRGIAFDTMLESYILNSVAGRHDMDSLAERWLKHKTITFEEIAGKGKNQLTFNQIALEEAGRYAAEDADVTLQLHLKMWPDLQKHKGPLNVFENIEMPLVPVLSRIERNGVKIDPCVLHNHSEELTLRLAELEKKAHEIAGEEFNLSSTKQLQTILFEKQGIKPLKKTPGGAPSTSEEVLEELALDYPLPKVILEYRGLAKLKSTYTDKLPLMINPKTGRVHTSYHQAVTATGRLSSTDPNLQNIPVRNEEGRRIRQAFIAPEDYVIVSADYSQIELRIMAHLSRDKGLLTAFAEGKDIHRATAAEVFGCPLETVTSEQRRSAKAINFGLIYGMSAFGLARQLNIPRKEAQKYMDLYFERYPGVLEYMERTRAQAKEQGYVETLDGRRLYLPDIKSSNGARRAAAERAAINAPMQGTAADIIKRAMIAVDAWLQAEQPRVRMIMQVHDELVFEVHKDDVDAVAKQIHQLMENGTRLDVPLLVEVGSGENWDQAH

For 1-alpha-borano-dCTP, the “time durations of the FRET signal for incorporation into the primer” value (“time durations of the FRET signal” for short) in assay [1] was “substantially different”. Also, in assay [2], the “amplitudes and durations for the 5-TAMRA emission shift” value is given as “could be distinguished from each other”.
As for `Nc1ccn([C@H]2C[C@H](O)[C@@H](COP(O)(=S)OP(=O)(O)OP(=O)(O)O)O2)c(=O)n1` (stereo partly drawn) [1-alpha-thiol-dCTP], in assay [1], the “time durations of the FRET signal” value is recorded as “substantially different”.
Regarding `Nc1ncnc2c1ncn2[C@H]1C[C@H](O)[C@@H](COP(=O)(O)OP(=O)(O)OP(=O)(O)O)O1` [dATP], in assay [1], the “time durations of the FRET signal” value is “very similar”. Besides, the “amplitudes and durations for the 5-TAMRA emission shift” value in assay [2] is “different amplitudes and durations”.
Consider `Nc1ccn([C@H]2C[C@H](O)[C@@H](COP(=O)(O)OP(=O)(O)OP(=O)(O)O)O2)c(=O)n1` [dCTP], for which, in assay [1], the “FRET duration, correct versus incorrect incorporation” value is given as “could be distinguished”. Moreover, the “incorporation detected by wavelength shift for the 5-TAMRA dye” value in assay [2] (correct or incorrect nucleotide, FIG. 9A, 9B) is recorded as “could be detected”. The “amplitudes and durations for the 5-TAMRA emission shift” value in assay [2] is “different amplitudes and durations”.
For `Nc1nc2c(ncn2[C@H]2C[C@H](O)[C@@H](COP(=O)(O)OP(=O)(O)OP(=O)(O)O)O2)c(=O)[nH]1` [dGTP], in assay [1], the “time durations of the FRET signal” value was “very similar” and the “FRET duration, correct versus incorrect incorporation” value was “could be distinguished”. Also, the “amplitudes and durations for the 5-TAMRA emission shift” value in assay [2] is “different amplitudes and durations”.
Regarding `Cc1cn([C@H]2C[C@H](O)[C@@H](COP(=O)(O)OP(=O)(O)OP(=O)(O)O)O2)c(=O)[nH]c1=O` [dTTP], the “AF488 fluorescence duration measured for the incorporation” value in assay [1] is on record as “substantially different”. In addition, the “amplitudes and durations for the 5-TAMRA emission shift” value in assay [2] was “different amplitudes and durations; also recorded: could be distinguished from each other”.
Turning to `O=c1ccn([C@H]2C[C@H](O)[C@@H](COP(=O)(O)OP(=O)(O)OP(=O)(O)O)O2)c(=O)[nH]1` [dUTP], the “time durations of the FRET signal” value in assay [1] was “differed”.
As to Gamma-ANS-dTTP, the “AF488 fluorescence duration measured for the incorporation” value in assay [1] is “substantially different”. Further, the “amplitudes and durations for the 5-TAMRA emission shift” value in assay [2] was “could be distinguished from each other”.

B1: Cy3AF647: RB69V510CE766C polymerase labeled with donor/acceptor pair Cy3/AF647 at cysteine residues (conjugate, UniProt Q38087 1-903, looked up, variant V510C E766C)
DNA-directed DNA polymerase: MKEFYLTVEQIGDSIFERYIDSNGRERTREVEYKPSLFAHCPESQATKYFDIYGKPCTRKLFANMRDASQWIKRMEDIGLEALGMDDFKLAYLSDTYNYEIKYDHTKIRVANFDIEVTSPDGFPEPSQAKHPIDAITHYDSIDDRFYVFDLLNSPYGNVEEWSIEIAAKLQEQGGDEVPSEIIDKIIYMPFDNEKELLMEYLNFWQQKTPVILTGWNVESFDIPYVYNRIKNIFGESTAKRLSPHRKTRVKVIENMYGSREIITLFGISVLDYIDLYKKFSFTNQPSYSLDYISEFELNVGKLKYDGPISKLRESNHQRYISYNIIDVYRVLQIDAKRQFINLSLDMGYYAKIQIQSVFSPIKTWDAIIFNSLKEQNKVIPQGRSHPVQPYPGAFVKEPIPNRYKYVMSFDLTSLYPSIIRQVNISPETIAGTFKVAPLHDYINAVAERPSDVYSCSPNGMMYYKDRDGVVPTEITKVFNQRKEHKGYMLAAQRNGEIIKEALHNPNLSCDEPLDVDYRFDFSDEIKEKIKKLSAKSLNEMLFRAQRTEVAGMTAQINRKLLINSLYGALGNVWFRYYDLRNATAITTFGQMALQWIERKVNEYLNEVCGTEGEAFVLYGDTDSIYVSADKIIDKVGESKFRDTNHWVDFLDKFARERMEPAIDRGFREMCEYMNNKQHLMFMDREAIAGPPLGSKGIGGFWTGKKRYALNVWDMEGTRYAEPKLKIMGLETQKSSTPKAVQKALKECIRRMLQEGEESLQEYFKCFEKEFRQLNYISIASVSSANNIAKYDVGGFPGPKCPFHIRGILTYNRAIKGNIDAPQVVEGEKVYVLPLREGNPFGDKCIAWPSGTEITDLIKDDVLHWMDYTVLLEKTFIKPLEGFTSAAKLDYEKKASLFDMFDF
modifications: Cy3/AF647 dye labels
notes: RB69V510CE766C polymerase labeled with donor/acceptor pair Cy3/AF647 at cysteine residues
Consider B1, for which the “functionality in extending a primed nucleic acid” value in assay [3] was “functional”.

B2: CF555AF647: RB69V510CE766C polymerase labeled with donor/acceptor pair CF555/AF647 at cysteine residues (conjugate, UniProt Q38087 1-903, looked up, variant V510C E766C)
DNA-directed DNA polymerase: MKEFYLTVEQIGDSIFERYIDSNGRERTREVEYKPSLFAHCPESQATKYFDIYGKPCTRKLFANMRDASQWIKRMEDIGLEALGMDDFKLAYLSDTYNYEIKYDHTKIRVANFDIEVTSPDGFPEPSQAKHPIDAITHYDSIDDRFYVFDLLNSPYGNVEEWSIEIAAKLQEQGGDEVPSEIIDKIIYMPFDNEKELLMEYLNFWQQKTPVILTGWNVESFDIPYVYNRIKNIFGESTAKRLSPHRKTRVKVIENMYGSREIITLFGISVLDYIDLYKKFSFTNQPSYSLDYISEFELNVGKLKYDGPISKLRESNHQRYISYNIIDVYRVLQIDAKRQFINLSLDMGYYAKIQIQSVFSPIKTWDAIIFNSLKEQNKVIPQGRSHPVQPYPGAFVKEPIPNRYKYVMSFDLTSLYPSIIRQVNISPETIAGTFKVAPLHDYINAVAERPSDVYSCSPNGMMYYKDRDGVVPTEITKVFNQRKEHKGYMLAAQRNGEIIKEALHNPNLSCDEPLDVDYRFDFSDEIKEKIKKLSAKSLNEMLFRAQRTEVAGMTAQINRKLLINSLYGALGNVWFRYYDLRNATAITTFGQMALQWIERKVNEYLNEVCGTEGEAFVLYGDTDSIYVSADKIIDKVGESKFRDTNHWVDFLDKFARERMEPAIDRGFREMCEYMNNKQHLMFMDREAIAGPPLGSKGIGGFWTGKKRYALNVWDMEGTRYAEPKLKIMGLETQKSSTPKAVQKALKECIRRMLQEGEESLQEYFKCFEKEFRQLNYISIASVSSANNIAKYDVGGFPGPKCPFHIRGILTYNRAIKGNIDAPQVVEGEKVYVLPLREGNPFGDKCIAWPSGTEITDLIKDDVLHWMDYTVLLEKTFIKPLEGFTSAAKLDYEKKASLFDMFDF
modifications: CF555/AF647 dye labels
notes: RB69V510CE766C polymerase labeled with donor/acceptor pair CF555/AF647 at cysteine residues
Turning to B2, the “functionality in extending a primed nucleic acid” value in assay [3] is recorded as “functional”.

Source of the values: patent US9862998B2, “Conformational probes and methods for sequencing nucleic acids” (Illumina, Inc., priority 2010, dated 2018).
